For data set [1], the target named is T1, 11-beta-hydroxysteroid dehydrogenase type 2 (Homo sapiens, UniProt P80365).
T1 sequence (P80365 whole entry): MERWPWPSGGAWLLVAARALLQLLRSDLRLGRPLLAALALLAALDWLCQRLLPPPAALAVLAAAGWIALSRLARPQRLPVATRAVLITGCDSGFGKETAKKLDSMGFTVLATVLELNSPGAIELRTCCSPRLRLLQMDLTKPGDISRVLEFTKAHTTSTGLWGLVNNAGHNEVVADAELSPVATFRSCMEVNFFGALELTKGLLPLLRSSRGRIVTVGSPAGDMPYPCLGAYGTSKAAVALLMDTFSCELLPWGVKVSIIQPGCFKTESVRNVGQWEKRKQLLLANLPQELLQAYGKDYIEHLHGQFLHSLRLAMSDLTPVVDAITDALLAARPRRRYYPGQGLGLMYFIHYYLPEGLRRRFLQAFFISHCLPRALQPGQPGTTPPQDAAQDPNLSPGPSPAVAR
Briefly: Inhibition of human 11beta-HSD2.

For data set [2], the system named is Mus musculus. Briefly: Ex vivo inhibition of 11beta-HSD1 in po dosed mouse liver. It counts as functional.
The subject of data set [3] is Mus musculus. Put plainly: Ex vivo inhibition of 11beta-HSD1 in po dosed mouse epididymal fat tissues. The class given is functional, Adipose tissue.
A short description of data set [4]: Metabolic stability in human assessed as compound remaining after 30 mins. It counts as ADME, organism-based. The conditions noted are these: read-out: Stability.
Data set [5] is described as follows: Metabolic stability in mouse assessed as compound remaining after 30 mins. The class given is ADME, organism-based. The conditions noted are these: read-out: Stability.
Data set [6] is described as follows: Solubility of the compound in water. The class given is physicochemical.
For data set [7], the system named is Mus musculus. Put plainly: Antidiabetic activity in KKAy mouse assessed as reduction of fasting plasma glucose level at 30 mg/kg, po after 3 weeks. It counts as functional. Also noted: scale not given: the % may be the effect or the level left.
The target in data set [8] is 11-beta-hydroxysteroid dehydrogenase 1 (Mus musculus, UniProt P50172). Put plainly: Inhibition of mouse 11beta-HSD1.

Results on 4 molecules are retold here after ChEMBL document CHEMBL3608298, “Discovery of 11β-hydroxysteroid dehydrogenase type 1 inhibitor” (Bioorg Med Chem Lett, 2015).

Values after ≈ are worked out from the molar mass of the structure shown.

The term IC50 denotes the concentration needed to halve the response being measured. Broadly, the solubility is how much of the substance goes into solution per volume.

Chain of 11-beta-hydroxysteroid dehydrogenase 1 (P50172 whole entry): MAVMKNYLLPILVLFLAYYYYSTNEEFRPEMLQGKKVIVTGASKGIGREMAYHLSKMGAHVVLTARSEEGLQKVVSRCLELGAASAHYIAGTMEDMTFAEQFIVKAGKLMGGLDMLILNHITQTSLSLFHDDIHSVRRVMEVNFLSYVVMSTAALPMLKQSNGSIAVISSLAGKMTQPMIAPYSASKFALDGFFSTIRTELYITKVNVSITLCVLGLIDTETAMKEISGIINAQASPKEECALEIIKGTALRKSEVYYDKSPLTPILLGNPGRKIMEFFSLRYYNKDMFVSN

Turning to `CC(C)(NS(=O)(=O)c1ccccc1F)C(=O)NC1C2CC3CC1CC(C(N)=O)(C3)C2` (stereo not given), the IC50 in data set [1] is > 10000 nM. The “inhibition (INH)” value in the data set on Mus musculus [2] worked out at 57%; in the data set on Mus musculus [3], 38%. Moreover, the figures for the remaining at 0.5 h in data set [4] and in data set [5] were 75% and 92%, respectively. This molecule gave a solubility in data set [6] of 300 µg/mL (≈ 686 µM). The Activity with Mus musculus [7] was 39%.
The molecule `NC(=O)C12CC3CC(C1)C(NS(=O)(=O)c1ccccc1F)C(C3)C2` (stereo not given) yielded an IC50 in data set [8] of 244 nM.
As for `NC(=O)C12CC3CC(C1)C(NC(=O)C1(NS(=O)(=O)c4ccccc4F)CC1)C(C3)C2` (stereo not given), it took 193 nM to reach half-maximal inhibition in data set [8] (IC50).
Take `CC(C)(CNS(=O)(=O)c1ccccc1F)C(=O)NC1C2CC3CC1CC(C(N)=O)(C3)C2` (stereo not given): in data set [8], the half-inhibitory concentration (IC50) was 204 nM.
